Data from patent publication US6864086B2, “Nitric oxide-scavenging system for culturing oocytes, embryos, or other cells” (Board of Supervisors of Louisiana State University and …, priority 1998, dated 2005).
Values joined by “and” are separate entries in the source; they are usually repeats but may differ in a detail not shown here. Equal entries are not always repeated.

Tested on: bovine IVF-oocytes
Test: Example 8: Hb (1 μg/ml) in mBECM co-culture, oocytes collected in different months, pre-hatching development
Assay type: cell-based
Design: key to Least square mean ± SE of embryos developed to 8-cell / Least square mean ± SE of embryos developed to 16-cell / Least square mean ± SE of embryos developed to Morula / Least square mean ± SE of embryos developed to Blastocyst / Least square mean ± SE of embryos developed to 2-cell: mean of per-embryo scores: 1 = developed to stage, 0 = not developed
Protocol: The basic medium used for maturation of oocytes was tissue culture medium (TCM)-199 with Earle's salts, buffered with 25 mM HEPES (Gibco BRL, Grand Island, N.Y.) and supplemented with 10% (v/v) heat-inactivated fetal bovine serum (FBS; Hyclone Laboratories, Logan, Utah), 1 μg/ml estradiol-17β (NOBL Laboratories, Sioux Center, Iowa), 3 μg/ml bovine FSH (NOBL Laboratories), 6 μg/ml bovine LH (NOBL Laboratories), and 25 μg/ml gentamycin (Sigma Chemical Co., St. Louis, Mo.). The basic medium used for treatment of spermatozoa and fertilization of oocytes was a modified Tyrode's medium (J. Parrish et al., Capacitation of bovine sperm by heparin. Biol. Reprod. 38:1171-1180 (1988)), supplemented with 0.25 mM sodium pyruvate (Gibco BRL), 6 mg/ml fatty acid (FA)-free BSA (No. A-6003, Sigma), 15 μg/ml calcium heparin from porcine intestinal mucosa (183 USP/mg; H-8398, Sigma), and 25 μg/ml gentamycin. Modified bovine embryo culture medium (mBECM) containing 10 μM β-mercaptoethanol was used for culture of embryos, as described in J. Lim et al., “Roles of growth factors in the development of bovine embryos fertilized in vitro and cultured singly in a defined medium,” Reprod. Fertil. Dev., 8:1199-1205 (1996). mBECM supplemented with 10% (v/v) FBS was used for co-culturing inseminated oocytes with CGC. Osmolarity of the medium was maintained within the range of 265-290 mOsm.
All cumulus-oocyte complexes (COC) were collected in Madison, Wis. (BOMED, Inc.) and were shipped in 2 ml of maturation medium in a battery powered incubator via overnight express mail service. Oocytes matured during transit and arrived within 24 h after exposure to maturation medium, pre-equilibrated at 39° C. in 5% CO2 in air. At 22 to 24 h after exposure to the medium, the COCs were inseminated in vitro as described in J. Lim et al., “Intracytoplasmic glutathione concentration and the role of β-mercaptoethanol in preimplantation development of bovine embryos,” Theriogenology, 46:429-439 (1996). At 18 h post-insemination, COCs were cultured in groups (28-40 embryos) in a 4-well multidish (Nunc, Roskilde, Denmark) containing 0.8-ml of mBECM. Embryos were dislodged from CGC at 36 to 48 h post-insemination.
In Example 8, bovine follicular oocytes were collected from November 1996 to May 1997, and matured and fertilized in culture. (Oocytes collected during summer and early fall were not used in this study, to avoid interference from environmental heat stress on in vitro survival of embryos.) IVF embryos were collected at 18 h post-insemination and cultured in mBECM supplemented with FBS (10%, v/v), to which 0 or 1 μg/ml Hb (from bovine, mainly methemoglobin, H-2500, Sigma Co.) was added. Development of embryos to the 2-cell, 8-cell, 16-cell, morula, and blastocyst stages was monitored 48, 60, 120, 144 and 192 h post-insemination, respectively. As a supplemental experiment, some blastocysts in each treatment (20 or 28) were randomly collected, and the cell number of the blastocysts was counted by use of Hoechst stain 33342 and a fluorescent microscope (Diaphod, Nikkon, Tokyo, Japan). This experiment used 1675 embryos in 25 replicates, with IVF embryos randomly allotted among treatments.
Embryos developed to the 2-cell, 8-cell, 16-cell, morula, and blastocyst stages at the pertinent observation times were individually scored ‘1’ (developed). Embryos that had not developed to these stages at the same times were scored ‘0’ (non-developed). Sums of the scores at each stage of development were evaluated by analysis of variance using a general linear model (PROC-GLM) in the SAS statistical programming package (1991). In Example 8, the combined effects of Hb addition and month of oocyte collection were first examined in a 2×7 factorial arrangement. Overall differences in embryonic development in Hb-free and Hb-containing culture systems were further evaluated. […] Differences were regarded as statistically significant where P values were less than 0.05.

hemoglobin [Hb]
Least square mean ± SE of embryos developed to 2-cell (April): 0.70 ± 0.03
Least square mean ± SE of embryos developed to 8-cell (April): 0.48 ± 0.03
Least square mean ± SE of embryos developed to 16-cell (April): 0.39 ± 0.03
Least square mean ± SE of embryos developed to Blastocyst (April): 0.25 ± 0.03
Least square mean ± SE of embryos developed to Morula (April): 0.32 ± 0.03
Least square mean ± SE of embryos developed to 2-cell (December): 0.79 ± 0.05
Least square mean ± SE of embryos developed to 8-cell (December): 0.59 ± 0.05
Least square mean ± SE of embryos developed to 16-cell (December): 0.53 ± 0.05
Least square mean ± SE of embryos developed to Blastocyst (December): 0.36 ± 0.05
Least square mean ± SE of embryos developed to Morula (December): 0.41 ± 0.05
Least square mean ± SE of embryos developed to 2-cell (February): 0.77 ± 0.04
Least square mean ± SE of embryos developed to 8-cell (February): 0.53 ± 0.04
Least square mean ± SE of embryos developed to 16-cell (February): 0.44 ± 0.04
Least square mean ± SE of embryos developed to Blastocyst (February): 0.35 ± 0.04
Least square mean ± SE of embryos developed to Morula (February): 0.40 ± 0.04
Least square mean ± SE of embryos developed to 2-cell (January): 0.70 ± 0.04
Least square mean ± SE of embryos developed to 8-cell (January): 0.45 ± 0.04
Least square mean ± SE of embryos developed to 16-cell (January): 0.42 ± 0.04
Least square mean ± SE of embryos developed to Blastocyst (January): 0.28 ± 0.04
Least square mean ± SE of embryos developed to Morula (January): 0.32 ± 0.04
Least square mean ± SE of embryos developed to 2-cell (March): 0.58 ± 0.05
Least square mean ± SE of embryos developed to 8-cell (March): 0.40 ± 0.06
Least square mean ± SE of embryos developed to 16-cell (March): 0.31 ± 0.06
Least square mean ± SE of embryos developed to Blastocyst (March): 0.20 ± 0.05
Least square mean ± SE of embryos developed to Morula (March): 0.23 ± 0.06
Least square mean ± SE of embryos developed to 2-cell (May): 0.70 ± 0.05
Least square mean ± SE of embryos developed to 8-cell (May): 0.60 ± 0.05
Least square mean ± SE of embryos developed to 16-cell (May): 0.49 ± 0.05
Least square mean ± SE of embryos developed to Blastocyst (May): 0.40 ± 0.05
Least square mean ± SE of embryos developed to Morula (May): 0.44 ± 0.05
Least square mean ± SE of embryos developed to 2-cell (November): 0.89 ± 0.07
Least square mean ± SE of embryos developed to 8-cell (November): 0.71 ± 0.08
Least square mean ± SE of embryos developed to 16-cell (November): 0.60 ± 0.08
Least square mean ± SE of embryos developed to Blastocyst (November): 0.34 ± 0.07
Least square mean ± SE of embryos developed to Morula (November): 0.57 ± 0.08
formation of blastocysts (least square mean), range over months (November-May, control 0.17-0.32): 0.20-0.4
formation of morulae (least square mean), range over months (November-May, control 0.2-0.37): 0.23-0.57
Number of embryos developed to 2-cell (all months overall, 831 embryos cultured, 48 h): 601
Number of embryos developed to 8-cell (all months overall, 831 embryos cultured, 60 h): 427
Number of embryos developed to 16-cell (all months overall, 831 embryos cultured, 120 h): 358
Number of embryos developed to Morula (all months overall, 831 embryos cultured, 144 h): 300
Number of embryos developed to Blastocyst (all months overall, 831 embryos cultured, 192 h): 251
Least square mean ± SE of embryos developed to 2-cell (all months overall, 48 h): 0.73 ± 0.02
Least square mean ± SE of embryos developed to 8-cell (all months overall, 60 h): 0.54 and 0.54 ± 0.02
Least square mean ± SE of embryos developed to 16-cell (all months overall, 120 h): 0.45 and 0.45 ± 0.02
Least square mean ± SE of embryos developed to Morula (all months overall, 144 h): 0.39 and 0.39 ± 0.02
Least square mean ± SE of embryos developed to Blastocyst (all months overall, 192 h): 0.31 and 0.31±0.02
effect on development to the 2-cell stage (all months overall, P>0.73): no significant effect
